Test results taken from patent publication US20240076630A1, “METHODS FOR GENERATING NEURAL TISSUE AND USES THEREOF” (priority 2015, published 2024).

Test system: human brain organoids
Type: cell-based

| Substance | spike rate | mean spiking rate (NBQX 20 μM, n=9 units, p<0.05, two-tailed Wilcoxon signed rank test, FIG. 4D bottom panel legend) | NBQX-treated median firing rate (bath application of 20 μM NBQX, 95% CI 0.0023 to 0.2048, n=12 units from 4 organoids) [Hz] | reduction of the median mean firing rate (bath application of 20 μM NBQX, vs baseline median firing rate 0.3800 Hz, p=0.0005, n=12 units from 4 organoids) [%] |
| --- | --- | --- | --- | --- |
| Tetrodotoxin citrate [TTX] | suppressed | – | – | – |
| 2,3-Dioxo-6-nitro-1,2,3,4-tetrahydrobenzo[f]quinoxaline-7-sulfonamide disodium salt [NBQX] | – | attenuated | 0.0733 | 81 |
